The source of these data is PubChem BioAssay (NCI).

Values joined by “and” are separate entries in the source; they are usually repeats but may differ in a detail not shown here. Equal values may be shown once.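 Growth conditions: 96-well plates. Treatment: test compound, 48 hours, 5 concentrations. Analysis: linear interpolation between bracketing concentrations; unreached endpoints set to highest concentration. GI50 is the concentration that inhibits growth by half. TGI is the concentration that stops growth completely.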 Where only a bound is given, the exact number is not on record here.

Holding throughout (assay): NCI anticancer screen, dose series, 48 h
In test [1] the test system is A498 renal.
For test [2], the system named is LOX IMVI melanoma.
The test system of test [3] is NCI-H460 lung.
Test [4] relates to SF-295 CNS.
The subject of test [5] is OVCAR-3 ovarian.
Test [6] has as its system SK-MEL-28 melanoma.
For test [7], the system named is CAKI-1 renal.
Test [8] deals with NCI-H522 lung.
The subject of test [9] is SF-268 CNS.
The subject of test [10] is HCT-116 colon.

`CCCc1cc(=O)n2c(C(=O)Nc3ccc(Cl)cc3C)c(C(=O)Nc3ccc(F)cc3)sc2n1`: the GI50 was 29.2 µM in [1]; 1.6 µM in test [2]; 20.8 µM in [3]; 31.7 µM in test [4]; 3.35 µM in test [5]; 8.07 µM in test [6]. Besides, the GI50 in test [7] was 7.77 µM; in test [8] it was 9.18 µM; in [9], 6.62 µM; in [10] it was 2.53 µM. The TGI is 99.8 µM in test [1]; 19.9 µM in [2]; more than 150 µM in test [3]; 131 µM in test [4]; 8.33 µM in test [5]; 46 µM in [6]. Moreover, the TGI in [7] was 42.3 µM; in [8], 67.5 µM; in [9] it was 24.9 µM; in test [10] it was more than 150 µM.

Take `COC(=O)C(=O)C(C(C)=O)C(=O)NCc1ccc(OC)c(OC)c1` (stereo unspecified): the TGI in test [1], in [2], in test [3], in test [4], in test [5] and in [6] was more than 100 µM throughout. For the same molecule, the TGI in [7], in [8], in [9] and in test [10] was more than 100 µM throughout.

For `Nc1cc2c(cc1Br)[nH]c(=O)c1ccccc12`, the GI50 in test [1] is 3.91 µM; in test [2], 1.8 µM; in test [3], 3.66 µM; in test [4], 10.2 µM; in test [5] it was 2.14 µM; in [6] it was 4.25 µM. In addition, the GI50 in test [7] was 5.39 µM; in test [8] it was 5.47 µM; in [9], 5.9 µM; in test [10] it was 2.91 µM. Also, the TGI in test [1] came to 29.8 µM; in test [2], 6.23 µM; in test [3], 18.5 µM; in [4], 38.4 µM; in test [5] it was 6.45 µM; in test [6] it was 15.5 µM. In addition, the TGI came out at 53.4 µM in [7], 19.8 µM in test [8], 44.9 µM in [9] and 25.5 µM in test [10].

Consider `ClC(Cl)=C1C(=C(Cl)Cl)C(Cl)(Cl)C1(Cl)Cl`, for which the TGI in test [1] was 26 µM; in test [2], 0.579 µM and 1.86 µM; in [3] it was 16.6 µM; in [4], 7.24 µM; in test [5] it was 14.1 µM; in test [6], 4.06 µM. For the same molecule, the TGI in test [7] turned out to be 8.14 µM; in test [8], 0.304 µM; in test [9] it was 9.22 µM; in [10], 3.73 µM. Further, the GI50 in [8] is 0.287 µM.

For the molecule `O=C(CC(=O)C1CCOC1=O)C(=O)Nc1cccc(Cl)c1` (stereo unspecified), the TGI in [1], in test [2], in test [3], in test [4], in test [5] and in test [6] was more than 100 µM in each case. The TGI in test [7], in test [8], in test [9] and in [10] was more than 100 µM each time.

Regarding `COc1ccc(/C(C)=C(\c2ccc(OCCN3CCCCCC3)cc2)c2ccc(OC(=O)C3CCCCC3)cc2)cc1`, the GI50 in [1] is 1.35 µM; in [2], 0.319 µM; in [3] it was 0.592 µM; in test [4], 0.484 µM; in [5] it was 1.16 µM; in test [6], 1.25 µM. Moreover, the GI50 in test [7] was 0.705 µM; in [8] it was 2.12 µM; in test [9] it was 1.16 µM; in [10] it was 0.638 µM. Moreover, the TGI in test [1] was found to be 3.45 µM; in test [2], 0.788 µM; in [3] it was 2.1 µM; in [4], 1.8 µM; in test [5], 3.13 µM; in test [6], 3.14 µM. Moreover, the TGI was 2.61 µM in [7], 5.36 µM in [8], 4.33 µM in test [9] and 2.47 µM in [10].
